Consider 15 compounds from patent publication US10144715B2, “Piperazine derivatives as liver X receptor modulators” (priority 2014, dated 2018).

Structures are written as SMILES. Where two headings read alike, the source gives them in different places.

The target of one experiment is LXR α LBD protein (Homo sapiens (Human), UniProt Q13133). The experiment in a line: LXR α radioligand binding assay (SPA, competition with [3H]TO901317). Particulars: read-out: LXRα Binding Ki.
Another experiment has as its target LXR β LBD protein (Homo sapiens (Human), UniProt P55055). The experiment in a line: biochemical. The class given is binding.
Experiment [1] has as its target Gal4 DNA binding domain fused to the LBD of LXRα in HEK293 cells (Homo sapiens (Human), UniProt Q13133). The experiment in a line: LXR luciferase transcriptional reporter gene assay, agonist mode, LXRα. Conditions: for EC50: read-out: Cell LXRα EC50. It is filed as cell-based.
Experiment [2] has as its target Gal4 DNA binding domain fused to the LBD of LXRβ in HEK293 cells (Homo sapiens (Human), UniProt P55055). The experiment in a line: cell-based.
Where [3] appears, read: Biological Test Example 1, read-out: LXRβ Binding Ki.
[4] abbreviates: Biological Test Example 2, agonist mode.
[5] abbreviates: Biological Test Example 2, agonist mode, read-out: Cell LXRβ EC50.

Chain of Gal4 DNA binding domain fused to the LBD of LXRα in HEK293 cells (Q13133 209-447): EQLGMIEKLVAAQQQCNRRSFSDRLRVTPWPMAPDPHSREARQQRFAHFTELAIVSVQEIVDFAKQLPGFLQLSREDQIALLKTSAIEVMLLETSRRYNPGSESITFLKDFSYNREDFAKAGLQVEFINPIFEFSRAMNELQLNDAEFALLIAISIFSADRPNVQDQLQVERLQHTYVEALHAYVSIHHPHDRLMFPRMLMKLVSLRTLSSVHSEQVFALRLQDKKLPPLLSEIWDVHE
Chain of LXR α LBD protein (Q13133 209-447): as above
Chain of Gal4 DNA binding domain fused to the LBD of LXRβ in HEK293 cells (P55055 222-460 limits assumed): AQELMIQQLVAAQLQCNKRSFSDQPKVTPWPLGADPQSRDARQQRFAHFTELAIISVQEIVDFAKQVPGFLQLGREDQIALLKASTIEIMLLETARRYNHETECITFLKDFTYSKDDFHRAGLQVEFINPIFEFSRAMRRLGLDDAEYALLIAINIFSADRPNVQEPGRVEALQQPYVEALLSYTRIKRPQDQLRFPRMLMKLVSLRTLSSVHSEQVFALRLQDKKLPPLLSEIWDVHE
Chain of LXR β LBD protein (P55055 222-460 limits assumed): as above

In general, Ki refers to the dissociation constant of the complex between target and ligand, obtained from inhibition or displacement. Broadly, the EC50 is the midpoint of the concentration-response curve. For the compound `CC(C)[C@@H]1CN(c2ccc(CO)c(S(C)(=O)=O)c2)CCN1c1nc(C(F)(F)F)c(C(N)=O)s1` [17-35, (R)-2-(4-(4-(hydroxymethyl)-3-(methylsulfonyl)phenyl)-2-isopropylpiperazin-1-yl)-4-(trifluoromethyl)thiazole-5-carboxamide], the Ki stood at 1660 nM on LXR α LBD protein and 111 nM at LXR β LBD protein (read-out: LXRβ Binding Ki). Besides, the “Cell LXRα efficacy” value in experiment [1] is 1738 (19) %. In addition, the EC50 in experiment [1] turned out to be 1740 nM; in experiment [2], 161 nM. In addition, in experiment [2] (agonist mode), the “Cell LXRβ efficacy” value is recorded as 161 (23) %.

Turning to `COC(=O)c1ccnc(N2CCN(c3ccc(F)c(S(C)(=O)=O)c3)C[C@H]2C(C)C)n1` [7-15, methyl (R)-2-(4-(4-fluoro-3-(methylsulfonyl)phenyl)-2-isopropylpiperazin-1-yl)pyrimidine-4-carboxylate], the Ki at LXR α LBD protein turned out to be 213 nM; at LXR β LBD protein (read-out: LXRβ Binding Ki), 20 nM. The “Cell LXRα efficacy” value in experiment [1] is 1102 (85) %. For the same compound, the EC50 in experiment [1] was found to be 1100 nM; in experiment [2], 213 nM. Further, the “Cell LXRβ efficacy” value in experiment [2] is 213 (65) %.

`CC(C)(F)CC1CN(c2ccc(F)c(S(C)(=O)=O)c2)CCN1c1ccc(C(F)(F)F)cn1` (centres unmarked) [35-1, 2-(2-fluoro-2-methylpropyl)-4-(4-fluoro-3-(methylsulfonyl)phenyl)-1-(5-(trifluoromethyl)pyridin-2-yl)piperazine]: the Ki on LXR α LBD protein amounted to 272 nM; on LXR β LBD protein (read-out: LXRβ Binding Ki) it was 38 nM. For the same compound, the “Cell LXRα efficacy” value in experiment [1] is listed as 1522 (97) %. The EC50 was found to be 1520 nM in experiment [1] and 499 nM in experiment [2]. Also, in experiment [2] (agonist mode), the “Cell LXRβ efficacy” value is 499 (88) %.

For `C[C@](O)(c1ccc(CN2CCN(c3cccc(S(C)(=O)=O)c3)C[C@H]2c2ccccc2)cc1)C(F)(F)F` [46-29, (S)-1,1,1-trifluoro-2-(4-(((R)-4-(3-(methylsulfonyl)phenyl)-2-phenylpiperazin-1-yl)methyl)phenyl)propan-2-ol], the Ki is 6320 nM at LXR α LBD protein and 1860 nM on LXR β LBD protein. Further, the EC50 in experiment [1] and in experiment [2] was greater than 20000 nM in each case.

As for `CS(=O)(=O)c1cc(N2CCN(C[C@H]3CC[C@H](C(F)(F)F)CC3)[C@@H](c3ccccc3)C2)ccc1CO` (single isomer, unassigned) [48-45], the Ki on LXR α LBD protein was 75 nM; at LXR β LBD protein (setting [3]) it was 21 nM. Also, in experiment [1], the “Cell LXRα efficacy” value is 431 (65) %. For the same compound, the EC50 in experiment [1] stood at 431 nM; in experiment [2] (setting [5]), 140 nM. For the same compound, in experiment [2] (setting [4]), the “Cell LXRβ efficacy” value was 33%.

As for `CC(C)[C@@H]1CN(c2ccc(F)c(S(N)(=O)=O)c2)CCN1c1ncc(C(C)(C)O)c(C(F)(F)F)n1` [10-2, (R)-2-fluoro-5-(4-(5-(2-hydroxypropan-2-yl)-4-(trifluoromethyl)pyrimidin-2-yl)-3-isopropylpiperazin-1-yl)benzenesulfonamide], the values for the Ki at LXR α LBD protein and at LXR β LBD protein (read-out: LXRβ Binding Ki) were 469 nM and 34 nM, respectively. In experiment [1], the “Cell LXRα efficacy” value is on record as 2692 (45) %. Besides, the EC50 in experiment [1] (agonist mode) is 2690 nM; in experiment [2], 475 nM. The “Cell LXRβ efficacy” value in experiment [2] (agonist mode) is on record as 475 (39) %.

Turning to `CNS(=O)(=O)c1cc(N2CCN(c3ncc(C(C)O)c(C(F)(F)F)n3)[C@H](C(C)C)C2)ccc1F` (stereo partly drawn) [12-8, 2-fluoro-5-((3R)-4-(5-(1-hydroxyethyl)-4-(trifluoromethyl)pyrimidin-2-yl)-3-isopropylpiperazin-1-yl)-N-methylbenzenesulfonamide], the Ki on LXR α LBD protein stood at 126 nM; at LXR β LBD protein (read-out: LXRβ Binding Ki), 4 nM. Further, the “Cell LXRα efficacy” value in experiment [1] is 503 (56) %. Moreover, the EC50 was 503 nM in experiment [1] (agonist mode) and 59 nM in experiment [2]. The “Cell LXRβ efficacy” value in experiment [2] (agonist mode) is listed as 59 (46) %.

Take `CC(C)[C@H]1CN(c2cccc(S(C)(=O)=O)c2)CCN1CC1CCC(C(F)(F)F)N(C)C1` (stereo partly drawn) [Cpd No 52-1, (2S)-2-isopropyl-1-((1-methyl-6-(trifluoromethyl)piperidin-3-yl)methyl)-4-(3-(methylsulfonyl)phenyl)piperazine]: the Ki at LXR α LBD protein worked out at 144 nM; on LXR β LBD protein (setting [3]), 19 nM. In addition, in experiment [1], the “Cell LXRα efficacy” value was 137 (95) %. Besides, the EC50 in experiment [1] came out at 137 nM; in experiment [2], 46 nM. Moreover, the “Cell LXRβ efficacy” value in experiment [2] (setting [4]) is 46 (74) %.

For the compound `COCCCN(C)C(=O)c1cnc(N2CCN(c3ccc(F)c(S(C)(=O)=O)c3)C[C@H]2C(C)C)nc1C(F)(F)F` [17-13, (R)-2-(4-(4-fluoro-3-(methylsulfonyl)phenyl)-2-isopropylpiperazin-1-yl)-N-(3-methoxypropyl)-N-methyl-4-(trifluoromethyl)pyrimidine-5-carboxamide], the Ki on LXR α LBD protein amounted to 2880 nM; at LXR β LBD protein (read-out: LXRβ Binding Ki), 253 nM. Moreover, the EC50 in experiment [1] (agonist mode) and in experiment [2] was greater than 20000 nM each time.

For `COCc1ccc(N2CCN(C[C@H]3CC[C@H](C(F)(F)F)CC3)[C@@H](c3ccccc3)C2)cc1S(C)(=O)=O` [48-49, (S)-4-(4-(methoxymethyl)-3-(methylsulfonyl)phenyl)-2-phenyl-1-(((1r,4S)-4-(trifluoromethyl)cyclohexyl)methyl)piperazine], the inhibitory constant (Ki) on LXR α LBD protein came to 13800 nM; on LXR β LBD protein (setting [3]), 1490 nM. Besides, the “Cell LXRα efficacy” value in experiment [1] is on record as 9842 (9) %. Further, the EC50 in experiment [1] is 9840 nM; in experiment [2] (setting [5]), 1350 nM. In experiment [2] (setting [4]), the “Cell LXRβ efficacy” value was 12%.

For the compound `C[C@@](O)(c1ccc(CN2CCN(c3cccc(S(C)(=O)=O)c3)C[C@@H]2c2ccccc2)cc1)C(F)(F)F` [46-31, (R)-1,1,1-trifluoro-2-(4-(((S)-4-(3-(methylsulfonyl)phenyl)-2-phenylpiperazin-1-yl)methyl)phenyl)propan-2-ol], the Ki amounted to 6560 nM at LXR α LBD protein and 2170 nM at LXR β LBD protein. Moreover, the EC50 in experiment [1] and in experiment [2] was greater than 20000 nM in each case.

As for `C[C@@H](c1ccc(C(F)(F)F)cc1)N1CCN(c2cccc(S(C)(=O)=O)c2)C[C@H]1c1ccccc1` [46-17, (R)-4-(3-(methylsulfonyl)phenyl)-2-phenyl-1-((S)-1-(4-(trifluoromethyl)phenyl)ethyl)piperazine], the inhibition constant Ki was greater than 3330 nM at LXR α LBD protein and greater than 2500 nM at LXR β LBD protein. Also, the EC50 in experiment [1] and in experiment [2] was greater than 20000 nM in each case.

As for `CC(C)[C@H]1CC[C@H](CN2CCN(c3ccc(CO)c(S(C)(=O)=O)c3)C[C@@H]2c2ccccc2)CC1` (single isomer, unassigned) [48-77], the Ki at LXR α LBD protein is 131 nM; at LXR β LBD protein (setting [3]), 23 nM. In experiment [1], the “Cell LXRα efficacy” value was 789 (53) %. The EC50 in experiment [1] came out at 789 nM; in experiment [2] (setting [5]), 360 nM. Also, the “Cell LXRβ efficacy” value in experiment [2] (setting [4]) was 23%.

On to `Cc1nc(N2CCN(c3ccc(F)c(S(C)(=O)=O)c3)C[C@H]2C(C)C)ncc1C(=O)N(C)CCCO` [17-27, (R)-2-(4-(4-fluoro-3-(methylsulfonyl)phenyl)-2-isopropylpiperazin-1-yl)-N-(3-hydroxypropyl)-N,4-dimethylpyrimidine-5-carboxamide], for which the inhibitory constant (Ki) on LXR α LBD protein was greater than 3330 nM; at LXR β LBD protein (read-out: LXRβ Binding Ki), greater than 2500 nM. For the same compound, the concentration for a half-maximal effect (EC50) in experiment [1] and in experiment [2] was greater than 20000 nM in each case.

With `CO[C@H]1CC[C@H](CN2CCN(c3ccc(CO)c(S(C)(=O)=O)c3)C[C@@H]2C(C)C)CC1` (single isomer, unassigned) [51-6], the Ki at LXR α LBD protein stood at 2800 nM; at LXR β LBD protein (setting [3]), 543 nM. The “Cell LXRα efficacy” value in experiment [1] is 1772 (45) %. In addition, the EC50 in experiment [1] worked out at 1770 nM; in experiment [2] (setting [5]), 400 nM. Moreover, the “Cell LXRβ efficacy” value in experiment [2] (setting [4]) is 45%.
